# According to patent US20100173943A1, “INSECTICIDAL COMPOSITIONS WITH IMPROVED ACTION” (BAYER CROPSCIENCE AG, priority 2007, published 2010):
# What was measured:
# [1] = test system: green peach aphid (Myzus persicae); assay: Myzus persicae test (MYZUPE); format: in vivo; conditions: pepper plants sprayed, 6 days; for pest or weed control at 4 ppm: 4 ppm a.i. alone; for pest or weed control at 0.8 ppm: 0.8 ppm a.i. alone; for pest or weed control at 20 ppm: 20 ppm a.i. alone
# Experimental: Myzus persicae Test (MYZUPE)
# (§1) Solvent: 7 parts by weight of dimethylformamide
# (§2) Emulsifier: 2 parts by weight of alkylaryl polyglycol ether
# (§3) To prepare an appropriate active ingredient formulation, 1 part by weight of active ingredient is mixed with the given amounts of solvent and emulsifier, and the concentrate is diluted with emulsifier-containing water to the desired concentration. In the case that addition of ammonium salts, penetrants, or ammonium salts and penetrants is required, they are pippetted in each case into the finished preparation solution after dilution in a concentration of 1000 ppm each.
# Pepper plants (Capsicum annuum) highly infested by the green peach aphid (Myzus persicaei) are treated by spraying with the active ingredient formulation in the desired concentration.
# After the desired time, the kill rate in % is determined. 100% means that all animals have been killed; 0% means that no animals have been killed.
# [2] = test system: cotton aphid (Aphis gossypii); assay: Aphis gossypii test (APHIGO spray treatment); format: in vivo; conditions: cotton leaves sprayed, 6 days; for pest or weed control at 4 ppm: 4 ppm a.i. alone; for pest or weed control at 0.8 ppm: 0.8 ppm a.i. alone; for pest or weed control at 20 ppm: 20 ppm a.i. alone
# Experimental: Aphis gossypii Test (APHIGO Spray Treatment)
# as §1, §2
# as §3, with “a ready-to-use” for “an appropriate”, “specified” for “given”, “emulsifier” for “emulsifier,”, “pipetted” for “pippetted”
# Cotton leaves (Gossypium hirsutum) highly infested by the cotton aphid (Aphis gossypii) are sprayed with an active ingredient formulation with the desired concentration.
# After the desired period, the kill rate in % is determined. 100% means that all aphids have been killed; 0% means that no aphids have been killed.
# [3] = 4 ppm a.i. + AMS and RME 1000 ppm each
# [4] = 4 ppm a.i. + ammonium sulphate 1000 ppm
# [5] = 4 ppm a.i. + rapeseed oil methyl ester 1000 ppm
# [6] = Myzus persicae, 144 h, read-out: Kill in % after 6 days a.i.
# [7] = Aphis gossypii, 144 h, read-out: Kill in % after 6 days a.i.
# [8] = 0.8 ppm a.i. + AMS and RME 1000 ppm each
# [9] = 0.8 ppm a.i. + ammonium sulphate 1000 ppm
# [10] = 0.8 ppm a.i. + rapeseed oil methyl ester 1000 ppm
# [11] = 20 ppm a.i. + AMS and RME 1000 ppm each
# [12] = 20 ppm a.i. + ammonium sulphate 1000 ppm
# [13] = 20 ppm a.i. + rapeseed oil methyl ester 1000 ppm
# [14] = 0.16 ppm a.i. + AMS and RME 1000 ppm each
# [15] = 0.16 ppm a.i. + ammonium sulphate 1000 ppm
# [16] = 0.16 ppm a.i. + rapeseed oil methyl ester 1000 ppm
Structure (SMILES),"Kill in % after 6 days +AMS + RME [1, 3] [%]","Kill in % after 6 days +AMS [1, 4] [%]","Kill in % after 6 days +RME [1, 5] [%]","pest or weed control at 4 ppm [1, 6] [%]","Kill in % after 6 days +AMS + RME [2, 3] [%]","Kill in % after 6 days +AMS [2, 4] [%]","Kill in % after 6 days +RME [2, 5] [%]","pest or weed control at 4 ppm [2, 7] [%]","Kill in % after 6 days +AMS + RME [1, 8] [%]","Kill in % after 6 days +AMS [1, 9] [%]","Kill in % after 6 days +RME [1, 10] [%]","pest or weed control at 0.8 ppm [1, 6] [%]","Kill in % after 6 days +AMS + RME [2, 8] [%]","Kill in % after 6 days +AMS [2, 9] [%]","Kill in % after 6 days +RME [2, 10] [%]","pest or weed control at 0.8 ppm [2, 7] [%]",also measured
"O=C1C=C(N(CCF)Cc2cnc(Cl)s2)CO1 [Compound I-4, 4-{[(2-chloro-1,3-thiazol-5-yl)methyl](2-fluoroethyl)amino}furan-2(5H)-one]",100,80,90,15,85,20,65,20,–,–,–,–,–,–,–,–,–
"O=C1C=C(N(Cc2cnc(Cl)c(F)c2)CC(F)F)CO1 [Compound I-17, 4-{[(6-chloro-5-fluoropyrid-3-yl)methyl](2,2-difluoroethyl)amino}furan-2(5H)-one]",100,99,100,95,–,–,–,–,25,5,35,0,40,20,40,0,–
"O=C1C=C(N(Cc2ccc(C(F)(F)F)nc2)C2CC2)CO1 [Compound I-24, 4-(cyclopropyl {[6-(trifluoromethyl)pyrid-3-yl]methyl}amino)furan-2(5H)-one]",75,20,85,15,–,–,–,–,–,–,–,–,–,–,–,–,"Kill in % after 6 days +AMS + RME [1, 11]: 98%; Kill in % after 6 days +AMS [1, 12]: 90%; Kill in % after 6 days +RME [1, 13]: 95%; pest or weed control at 20 ppm [1, 6]: 75%; Kill in % after 6 days +AMS + RME [2, 11]: 90%; Kill in % after 6 days +AMS [2, 12]: 85%; Kill in % after 6 days +RME [2, 13]: 85%; pest or weed control at 20 ppm [2, 7]: 50%"
"O=C1C=C(N(Cc2ccc(Cl)nc2)C2CC2)CO1 [Compound I-31, 4-{[(6-chloropyrid-3-yl)methyl](cyclopropyl)amino}furan-2(5H)-one]",–,–,–,–,–,–,–,–,95,80,100,50,80,65,80,50,"Kill in % after 6 days +AMS + RME [2, 14]: 60%; Kill in % after 6 days +AMS [2, 15]: 30%; Kill in % after 6 days +RME [2, 16]: 15%; pest or weed control at 0.16 ppm ([2]; Aphis gossypii, 144 h, 0.16 ppm a.i. alone, read-out: Kill in % after 6 days a.i.): 0%"
"O=C1C=C(N(CCF)Cc2cnc(Cl)c(Cl)c2)CO1 [Compound I-14, 4-{[(5,6-dichloropyrid-3-yl)methyl](2-fluoroethyl)amino}furan-2(5H)-one]",95,60,95,25,–,–,–,–,–,–,–,–,70,5,40,0,–
"O=C1C=C(N(Cc2cnc(Br)c(F)c2)C2CC2)CO1 [Compound I-12, 4-{[(6-bromo-5-fluoropyrid-3-yl)methyl](cyclopropyl)amino}furan-2(5H)-one]",95,95,100,85,75,80,85,55,45,0,10,5,25,5,10,0,–
"CN(Cc1cnc(Br)c(F)c1)C1=CC(=O)OC1 [Compound I-11, 4-{[(6-bromo-5-fluoropyrid-3-yl)methyl](methyl)amino}furan-2(5H)-one]",–,–,–,–,–,–,–,–,99,95,99,85,99,55,95,15,"Kill in % after 6 days +AMS + RME [1, 14]: 90%; Kill in % after 6 days +AMS [1, 15]: 0%; Kill in % after 6 days +RME [1, 16]: 0%; pest or weed control at 0.16 ppm ([1]; Myzus persicae, 144 h, 0.16 ppm a.i. alone, read-out: Kill in % after 6 days a.i.): 0%"
"O=C1C=C(N(Cc2ccc(Cl)nc2)C2CC2)CC1 [Compound I-19, 3-{[(6-chloropyrid-3-yl)methyl](cyclopropyl)amino}cyclopent-2-en-1-one]",–,–,–,–,80,40,85,15,–,–,–,–,50,0,40,0,"Kill in % after 6 days +AMS + RME [1, 11]: 100%; Kill in % after 6 days +AMS [1, 12]: 80%; Kill in % after 6 days +RME [1, 13]: 98%; pest or weed control at 20 ppm [1, 6]: 80%"
"O=C1C=C(N(Cc2cnc(Cl)c(Cl)c2)C2CC2)CO1 [Compound I-9, 4-{[(5,6-dichloropyrid-3-yl)methyl](cyclopropyl)amino}furan-2(5H)-one]",70,15,60,0,–,–,–,–,–,–,–,–,30,0,15,0,–
"CN(Cc1cccnc1)C1=CC(=O)OC1 [Compound I-21, 4-[methyl(pyrid-3-ylmethyl)amino]furan-2(5H)-one]",–,–,–,–,45,5,50,10,–,–,–,–,–,–,–,–,"Kill in % after 6 days +AMS + RME ([1]; 100 ppm a.i. + AMS and RME 1000 ppm each): 65%; Kill in % after 6 days +AMS ([1]; 100 ppm a.i. + ammonium sulphate 1000 ppm): 70%; Kill in % after 6 days +RME ([1]; 100 ppm a.i. + rapeseed oil methyl ester 1000 ppm): 90%; pest or weed control at 100 ppm ([1]; Myzus persicae, 144 h, 100 ppm a.i. alone, read-out: Kill in % after 6 days a.i.): 50%"
"O=C1C=C(N(CCF)Cc2ccc(Br)nc2)CO1 [Compound I-1, 4-{[(6-bromopyrid-3-yl)methyl](2-fluoroethyl)amino}furan-2(5H)-one]",99,95,99,35,–,–,–,–,35,0,25,0,95,20,50,25,–
"CN(Cc1ccc(Cl)nc1)C1=C(F)C(=O)OC1 [Compound I-28, 4-{[(6-chloropyrid-3-yl)methyl](methyl)amino}-3-fluorofuran-2(5H)-one]",95,15,90,50,80,60,75,50,–,–,–,–,–,–,–,–,"Kill in % after 6 days +AMS + RME [2, 11]: 95%; Kill in % after 6 days +AMS [2, 12]: 90%; Kill in % after 6 days +RME [2, 13]: 95%; pest or weed control at 20 ppm [2, 7]: 55%"
